Key:
ABCA4 P1380L = molecular target: T1, ABCA4 P1380L (Homo sapiens, UniProt P78363, P1380L); assay: A4 correction dose-response assay: ABCA4 P1380L HiBit protein expression; type: cell-based; conditions: HEK-293 cells stably expressing HiBit-tagged ABCA4 P1380L; 24 h treatment; top concentration 30 μM; read-out: ABCA4 P1380L EC50, Emax
T1 construct: expressed in transfected cells
Summary of the method: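 Cells transfected with HiBit-tagged human ABCA4 P1380L cDNA were treated for 24 h at 37°C with an eleven-point dilution series (top final 30 μM, 0.3% DMSO).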

ABCB4 WT = molecular target: T2, ABCB4 WT (Homo sapiens, UniProt P21439); assay: ABCB4 WT assay: HiBit protein expression; type: cell-based; conditions: HEK-293 cells stably expressing HiBit-tagged ABCB4 WT; 24 h treatment; top concentration 30 μM; read-out: ABCB4 WT EC50, Emax
T2 construct: expressed in transfected cells
Summary of the method: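 HEK-293 cells stably expressing HiBit-tagged human ABCB4 WT, treated 24 h at 37 °C with 11-dose 3-fold dilutions, top final 30 μM in 0.3% DMSO. HiBit lytic reagent luminescence read after 1 h at 25 °C; Emax and EC50 derived.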

T2 sequence (P21439 whole entry): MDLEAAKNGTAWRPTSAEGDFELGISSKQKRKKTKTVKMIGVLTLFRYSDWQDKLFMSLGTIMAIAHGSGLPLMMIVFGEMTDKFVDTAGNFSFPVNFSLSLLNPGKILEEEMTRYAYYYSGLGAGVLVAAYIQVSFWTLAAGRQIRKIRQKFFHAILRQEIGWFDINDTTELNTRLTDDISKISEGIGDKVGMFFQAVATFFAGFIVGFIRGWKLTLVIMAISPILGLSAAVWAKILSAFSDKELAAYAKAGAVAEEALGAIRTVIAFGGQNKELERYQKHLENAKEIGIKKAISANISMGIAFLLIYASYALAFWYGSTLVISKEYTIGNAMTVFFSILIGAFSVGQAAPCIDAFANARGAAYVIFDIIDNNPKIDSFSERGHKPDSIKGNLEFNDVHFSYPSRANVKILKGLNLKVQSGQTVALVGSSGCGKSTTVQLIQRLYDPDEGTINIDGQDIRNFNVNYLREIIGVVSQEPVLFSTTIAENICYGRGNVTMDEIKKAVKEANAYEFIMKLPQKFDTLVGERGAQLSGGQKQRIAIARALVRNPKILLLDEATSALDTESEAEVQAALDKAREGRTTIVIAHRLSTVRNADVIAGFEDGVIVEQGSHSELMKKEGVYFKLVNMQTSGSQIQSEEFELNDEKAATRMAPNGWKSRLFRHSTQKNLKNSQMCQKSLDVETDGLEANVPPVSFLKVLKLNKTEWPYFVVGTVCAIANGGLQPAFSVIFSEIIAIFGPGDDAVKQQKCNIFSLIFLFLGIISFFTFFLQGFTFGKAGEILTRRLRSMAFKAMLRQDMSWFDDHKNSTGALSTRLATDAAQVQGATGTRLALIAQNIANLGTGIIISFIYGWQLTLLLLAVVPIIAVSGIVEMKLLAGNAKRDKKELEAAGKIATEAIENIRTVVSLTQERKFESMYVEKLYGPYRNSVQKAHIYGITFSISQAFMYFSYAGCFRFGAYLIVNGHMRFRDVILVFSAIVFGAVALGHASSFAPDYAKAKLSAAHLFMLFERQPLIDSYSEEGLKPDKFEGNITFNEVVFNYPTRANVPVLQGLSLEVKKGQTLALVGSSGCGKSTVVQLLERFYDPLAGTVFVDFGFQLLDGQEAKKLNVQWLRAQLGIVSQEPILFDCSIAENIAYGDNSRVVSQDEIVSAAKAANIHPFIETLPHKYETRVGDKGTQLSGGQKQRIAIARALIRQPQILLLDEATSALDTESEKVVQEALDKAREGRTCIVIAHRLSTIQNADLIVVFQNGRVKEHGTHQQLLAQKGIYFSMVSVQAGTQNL
T1 sequence (P78363 whole entry P1380L): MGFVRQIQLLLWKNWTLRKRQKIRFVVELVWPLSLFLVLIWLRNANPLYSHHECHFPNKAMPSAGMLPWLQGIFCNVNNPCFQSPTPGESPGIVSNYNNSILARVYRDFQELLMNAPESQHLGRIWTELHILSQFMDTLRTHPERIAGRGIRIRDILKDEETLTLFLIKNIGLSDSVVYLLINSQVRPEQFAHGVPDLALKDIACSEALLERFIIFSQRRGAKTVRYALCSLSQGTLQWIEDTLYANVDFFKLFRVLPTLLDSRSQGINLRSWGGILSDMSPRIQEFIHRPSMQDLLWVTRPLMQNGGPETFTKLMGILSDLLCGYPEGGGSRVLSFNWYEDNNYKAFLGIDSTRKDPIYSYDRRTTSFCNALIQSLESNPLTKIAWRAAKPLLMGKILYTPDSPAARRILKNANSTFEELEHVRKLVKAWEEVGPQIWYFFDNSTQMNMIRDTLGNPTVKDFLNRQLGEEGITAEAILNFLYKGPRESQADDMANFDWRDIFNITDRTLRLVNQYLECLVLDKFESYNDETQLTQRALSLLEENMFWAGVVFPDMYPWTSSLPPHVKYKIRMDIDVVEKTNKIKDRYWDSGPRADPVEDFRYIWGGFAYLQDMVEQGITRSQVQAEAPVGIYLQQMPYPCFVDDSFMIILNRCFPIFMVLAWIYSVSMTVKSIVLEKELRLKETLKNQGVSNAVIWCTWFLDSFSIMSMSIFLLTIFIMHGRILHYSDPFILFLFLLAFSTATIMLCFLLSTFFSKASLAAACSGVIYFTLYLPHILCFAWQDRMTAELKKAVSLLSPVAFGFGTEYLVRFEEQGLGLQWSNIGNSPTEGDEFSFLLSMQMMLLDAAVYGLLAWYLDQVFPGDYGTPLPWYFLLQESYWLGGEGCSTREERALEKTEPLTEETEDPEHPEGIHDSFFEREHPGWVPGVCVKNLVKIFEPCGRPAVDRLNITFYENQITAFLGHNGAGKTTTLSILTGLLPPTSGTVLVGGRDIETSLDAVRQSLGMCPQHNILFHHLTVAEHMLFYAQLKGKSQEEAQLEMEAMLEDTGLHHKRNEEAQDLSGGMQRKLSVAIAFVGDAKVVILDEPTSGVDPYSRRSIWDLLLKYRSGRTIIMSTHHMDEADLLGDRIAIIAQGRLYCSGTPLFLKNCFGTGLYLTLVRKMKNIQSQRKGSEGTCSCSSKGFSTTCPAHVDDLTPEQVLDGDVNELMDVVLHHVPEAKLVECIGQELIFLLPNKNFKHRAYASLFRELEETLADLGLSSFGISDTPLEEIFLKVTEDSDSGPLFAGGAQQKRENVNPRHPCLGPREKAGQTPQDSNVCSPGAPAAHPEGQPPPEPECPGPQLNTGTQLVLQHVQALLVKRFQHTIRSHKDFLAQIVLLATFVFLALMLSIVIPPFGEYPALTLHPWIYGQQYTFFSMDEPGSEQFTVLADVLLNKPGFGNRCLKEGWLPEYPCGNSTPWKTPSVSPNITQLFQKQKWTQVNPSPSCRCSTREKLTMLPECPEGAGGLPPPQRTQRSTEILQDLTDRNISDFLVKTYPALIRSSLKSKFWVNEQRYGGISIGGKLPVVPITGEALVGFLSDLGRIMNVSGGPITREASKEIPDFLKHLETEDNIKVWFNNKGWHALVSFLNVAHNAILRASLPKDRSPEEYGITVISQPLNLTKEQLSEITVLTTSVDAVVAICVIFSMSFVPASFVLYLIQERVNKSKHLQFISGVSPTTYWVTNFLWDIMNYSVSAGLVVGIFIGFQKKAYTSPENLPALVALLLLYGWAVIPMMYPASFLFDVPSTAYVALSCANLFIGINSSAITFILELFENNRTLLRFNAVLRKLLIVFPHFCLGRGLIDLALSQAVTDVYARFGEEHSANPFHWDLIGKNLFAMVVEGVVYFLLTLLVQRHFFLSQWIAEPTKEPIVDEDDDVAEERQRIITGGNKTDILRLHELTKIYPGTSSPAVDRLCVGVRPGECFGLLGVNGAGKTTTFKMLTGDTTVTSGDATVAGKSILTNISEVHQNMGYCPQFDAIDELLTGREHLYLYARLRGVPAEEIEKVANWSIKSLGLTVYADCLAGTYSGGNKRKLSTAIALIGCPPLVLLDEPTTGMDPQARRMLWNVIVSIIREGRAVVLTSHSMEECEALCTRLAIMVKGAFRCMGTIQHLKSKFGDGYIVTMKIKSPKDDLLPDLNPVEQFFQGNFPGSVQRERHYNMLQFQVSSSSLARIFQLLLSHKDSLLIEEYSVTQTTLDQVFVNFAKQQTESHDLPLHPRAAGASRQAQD

Row | SMILES | EC50 (ABCA4 P1380L) [µM] | EC50 (ABCB4 WT) [µM]
1 | Cc1cc(C)c(Oc2nc(-n3cc(C)cn3)ccc2NS(C)(=O)=O)c(C)c1 [Compound I-11] | > 25 | ≥ 25
2 | Cc1cc(C)c(Oc2nc(-n3cnc(C)c3)ccc2NS(C)(=O)=O)c(C)c1 [Compound I-12] | > 25 | < 25
3 | Cc1cc(C)c(Oc2nc(-c3cnn(C)c3C)ccc2NS(C)(=O)=O)c(C)c1 [Compound I-13] | 1 to 10 | 1 to 10
4 | Cc1cc(C)c(Oc2nc(-c3cnn(C)c3)ccc2NS(C)(=O)=O)c(C)c1 [Compound I-14] | > 25 | ≥ 25
5 | Cc1cc(C)c(Oc2nc(N3CCN(C(=O)C4(C)CC4)CC3)ccc2NS(C)(=O)=O)c(C)c1 [Compound I-15] | 1 to 10 | 1 to 10
6 | COC(=O)N1CCN(c2ccc(NS(C)(=O)=O)c(Oc3c(C)cc(C)cc3C)n2)CC1 [Compound I-16] | > 25 | ≥ 25
7 | CC(=O)N1CCN(c2ccc(NS(C)(=O)=O)c(Oc3c(C)cc(C)cc3C)n2)CC1 [Compound I-17] | > 25 | ≥ 25
8 | Cc1nc(Oc2nc(-c3cncc(C#N)c3)ccc2NS(C)(=O)=O)c(C)s1 [Compound I-107] | > 25 | ≥ 25
9 | Cc1cc(Oc2nc(-c3cncc(C#N)c3)ccc2NS(C)(=O)=O)nn1C [Compound I-113] | < 25 | < 25
10 | Cc1nn(C)c(C)c1Oc1nc(-c2cncc(C#N)c2)ccc1NS(C)(=O)=O [Compound I-115] | < 25 | < 1
11 | Cc1cc(C)c(Oc2nc(-c3cncc(S(C)(=N)=O)c3)ccc2NS(C)(=O)=O)c(C)n1 (stereo not drawn) [Compound I-116] | > 25 | ≥ 25
12 | Cc1nc(C2CC2)c(Cl)cc1Oc1nc(-c2cncc(C#N)c2)ccc1NS(C)(=O)=O [Compound I-120] | < 1 | < 25
13 | Cc1cc(Oc2nc(-c3cncc(C#N)c3)ccc2NS(C)(=O)=O)c(C)nc1C1CC1 [Compound I-127] | 1 to 10 | < 1
14 | Cc1cc(OC(F)(F)F)nc(C)c1Oc1nc(-c2cncc(C#N)c2)ccc1NS(C)(=O)=O [Compound I-131] | < 1 | < 1
15 | Cc1cc(OC2CC2)nc(C)c1Oc1nc(-c2cncc(C#N)c2)ccc1NS(C)(=O)=O [Compound I-132] | < 1 | < 1
16 | Cc1nc(C)c(Oc2nc(-c3cncc(C#N)c3)ccc2NS(C)(=O)=O)c(C2CC2)n1 [Compound I-165] | 1 to 10 | 1 to 10
17 | Cc1cc(C)c(Oc2nc(-c3cncc(C#N)c3)ccc2N(C)S(C)(=O)=O)c(C)n1 [Compound I-166] | 1 to 10 | 1 to 10
18 | CNS(=O)(=O)c1ccc(-c2cncc(C#N)c2)nc1Oc1c(C)nc(C(F)(F)F)nc1C [Compound I-167] | 1 to 10 | 1 to 10
19 | CNS(=O)(=O)c1ccc(-c2cncc(C#N)c2)nc1Oc1c(C)cc(C(F)(F)F)nc1C [Compound I-168] | 1 to 10 | 1 to 10
20 | Cc1nc(N2CC(S(C)(=O)=O)C2)nc(C)c1Oc1nc(-c2cncc(C#N)c2)ccc1NS(C)(=O)=O [Compound I-169] | 1 to 10 | 1 to 10

Row | SMILES | EC50 (ABCA4 P1380L) [µM] | EC50 (ABCB4 WT) [µM]
21 | Cc1nc(N2CC(F)(F)C2)nc(C)c1Oc1nc(-c2cncc(C#N)c2)ccc1NS(C)(=O)=O [Compound I-170] | < 1 | < 1
22 | Cc1cc(C2CC2)c(Oc2nc(-c3cncc(C#N)c3)ccc2NS(C)(=O)=O)c(C)n1 [Compound I-171] | < 1 | < 1
23 | Cc1cc(C)c(Oc2nc(-c3cncc(C#N)c3)ccc2NS(=O)(=O)C2(C)CC2)c(C)n1 [Compound I-172] | < 1 | < 1
24 | Cc1nc(C(F)F)nc(C)c1Oc1nc(-c2cncc(C#N)c2)ccc1NS(C)(=O)=O [Compound I-173] | < 1 | < 1
25 | Cc1nc(C2COC2)nc(C)c1Oc1nc(-c2cncc(C#N)c2)ccc1NS(C)(=O)=O [Compound I-174] | 1 to 10 | ≥ 25
26 | Cc1nc(C(F)F)nc(C)c1Oc1nc(-c2cncc(Cl)c2)ccc1NS(C)(=O)=O [Compound I-175] | < 1 | < 1
27 | Cc1cc(C)c(Oc2nc(-c3cncc(C#N)c3)ccc2NS(C)(=O)=O)c(OC2CC2)n1 [Compound I-176] | < 1 | < 1
28 | Cc1cc(N2CCC2)nc(C)c1Oc1nc(-c2cncc(C#N)c2)ccc1NS(C)(=O)=O [Compound I-177] | < 1 | < 1
29 | Cc1nc(OC2CC2)c(C(F)(F)F)cc1Oc1nc(-c2cncc(C#N)c2)ccc1NS(C)(=O)=O [Compound I-178] | > 25 | < 1
30 | Cc1nc(C2CC2)c(C(F)F)cc1Oc1nc(-c2cncc(C#N)c2)ccc1NS(C)(=O)=O [Compound I-179] | > 25 | < 1
31 | Cc1cc(N2CC(F)(F)C2)nc(C)c1Oc1nc(-c2cncc(C#N)c2)ccc1NS(C)(=O)=O [Compound I-180] | > 25 | < 1
32 | Cc1nc(C2CCC2)nc(C)c1Oc1nc(-c2cncc(C#N)c2)ccc1NS(C)(=O)=O [Compound I-181] | < 1 | < 1
33 | Cc1cc(Oc2nc(-c3cncc(C#N)c3)ccc2NS(C)(=O)=O)c(C)nc1C(F)(F)F [Compound I-182] | < 1 | < 1
34 | Cc1nc(C2CC2)nc(C)c1Oc1nc(-c2cncc(C#N)c2)ccc1NS(C)(=O)=O [Compound I-183] | < 1 | < 1
35 | Cc1nc(C2CC2)c(C(F)(F)F)cc1Oc1nc(-c2cncc(C#N)c2)ccc1NS(C)(=O)=O [Compound I-184] | < 1 | < 1
36 | Cc1cc(C)c(Oc2nc(-c3cncc(N4CC(F)C4)c3)ccc2NS(C)(=O)=O)c(C)n1 [Compound I-185] | < 1 | < 1
37 | Cc1cc(C)c(Oc2nc(-c3ccn(C)c(=O)c3)ccc2NS(C)(=O)=O)c(C)n1 [Compound I-186] | > 25 | ≥ 25
38 | Cc1cc(C)c(Oc2nc(-c3cc[nH]c(=O)c3)ccc2NS(C)(=O)=O)c(C)n1 [Compound I-187] | > 25 | ≥ 25
39 | COc1cc(-c2ccc(NS(C)(=O)=O)c(Oc3c(C)cc(C)nc3C)n2)ccn1 [Compound I-188] | 1 to 10 | ≥ 25
40 | Cc1cc(C)c(Oc2nc(-c3cncc(N4CCC4)c3)ccc2NS(C)(=O)=O)c(C)n1 [Compound I-190] | < 1 | < 1

Row | SMILES | EC50 (ABCA4 P1380L) [µM] | EC50 (ABCB4 WT) [µM]
41 | Cc1nc(C)c(Oc2nc(-c3cncc(C(F)F)c3)ccc2NS(C)(=O)=O)c(C)n1 [Compound I-191] | < 1 | < 1
42 | Cc1nc(C)c(Oc2nc(-c3cncc(C(F)(F)F)c3)ccc2NS(C)(=O)=O)c(C)n1 [Compound I-192] | 1 to 10 | < 25
43 | Cc1nc(C)c(Oc2nc(-c3cncc(C4CC4)c3)ccc2NS(C)(=O)=O)c(C)n1 [Compound I-193] | < 1 | < 1
44 | Cc1cc(C)c(Oc2nc(-c3cncc(C4CN(C)C4)c3)ccc2NS(C)(=O)=O)c(C)n1 [Compound I-194] | 10 to 25 | ≥ 25
45 | Cc1cc(C)c(Oc2nc(-c3cncc(N4CC(F)(F)C4)c3)ccc2NS(C)(=O)=O)c(C)n1 [Compound I-195] | > 25 | < 1
46 | COC1CN(c2cncc(-c3ccc(NS(C)(=O)=O)c(Oc4c(C)cc(C)nc4C)n3)c2)C1 [Compound I-196] | > 25 | ≥ 25
47 | Cc1cc(C(F)F)nc(C)c1Oc1nc(-c2cncc(C3COC3)c2)ccc1NS(C)(=O)=O [Compound I-197] | 1 to 10 | < 1
48 | Cc1cc(C(F)(F)F)nc(C)c1Oc1nc(-c2cncc(C3COC3)c2)ccc1NS(C)(=O)=O [Compound I-198] | > 25 | < 1
49 | Cc1cc(C(F)F)nc(C)c1Oc1nc(-c2cncc(C#N)c2)ccc1NS(=O)(=O)C1CC1 [Compound I-199] | < 1 | < 1
50 | Cc1nc(C(F)(F)F)nc(C)c1Oc1nc(-c2cncc(C#N)c2)ccc1NS(C)(=O)=O [Compound I-200] | < 1 | < 1
51 | Cc1cc(C)c(Oc2nc(-c3cncc(N4CCOCC4)c3)ccc2NS(C)(=O)=O)c(C)n1 [Compound I-201] | 1 to 10 | ≥ 25
52 | Cc1cc(C(F)F)nc(C)c1Oc1nc(-c2cncc(Cl)c2)ccc1NS(C)(=O)=O [Compound I-202] | < 1 | < 25
53 | Cc1cc(C(F)F)nc(C)c1Oc1nc(-c2ccnc(C#N)c2)ccc1NS(=O)(=O)C1CC1 [Compound I-203] | < 1 | < 25
54 | Cc1cc(C(F)F)nc(C)c1Oc1nc(-c2ccnc(C#N)c2)ccc1NS(C)(=O)=O [Compound I-204] | < 1 | < 1
55 | Cc1nc(C(F)(F)F)nc(C)c1Oc1nc(-c2cncc(Cl)c2)ccc1NS(C)(=O)=O [Compound I-205] | < 1 | ≥ 25
56 | COC(=O)c1cncc(-c2ccc(NS(C)(=O)=O)c(Oc3cc(C)n(C)n3)n2)c1 [Compound I-206] | < 25 | < 25
57 | Cc1cc(C2CCC2)nc(C)c1Oc1nc(-c2cncc(C#N)c2)ccc1NS(C)(=O)=O [Compound I-208] | < 1 | < 1
58 | COc1nc(C)cc(C)c1Oc1nc(-c2cncc(C#N)c2)ccc1NS(C)(=O)=O [Compound I-209] | < 1 | < 1
59 | Cc1cc(C)c(Oc2nc(-c3ccnc(C#N)c3)ccc2NS(=O)(=O)C2CC2)c(C)n1 [Compound I-211] | 10 to 25 | < 1
60 | C#Cc1cncc(-c2ccc(NS(C)(=O)=O)c(Oc3c(C)cc(C)nc3C)n2)c1 [Compound I-212] | < 1 | < 1

— patent US20250228835A1, “PYRIDINYLOXYPYRIDINES AND RELATED COMPOUNDS AND THEIR USE IN TREATING MEDICAL CONDITIONS” (Rectify Pharmaceuticals, Inc., priority 2024, published 2025)
